Laboratory results as given in patent publication US20240018145A1, “[…]-DEPENDENT EN[…] TREATING OR […]” (priority 2020, published 2024).
Where two headings read alike, the source gives them in different places.

Test system: FLU A (PR/8/34)
Assay: Flu A Neuraminidase Antiviral Assay
Type: cell-based

CN1C(=O)c2c(O)c(=O)ccn2N2[C@H](c3ccccc3)[C@@H](OCCCCC#N)CC[C@@H]12 [Compound 154, 5-(((1R,2S,4aS)-7-hydroxy-5-methyl-6,8-dioxo-1-phenyl-1,2,3,4,4a,5,6,8-octahydrodipyrido[1,2-b:2′,1′-f][1,2,4]triazin-2-yl)oxy)pentanenitrile]
EC50 (MDCK, 48 h): > 810 nM

CN1C(=O)c2c(O)c(=O)ccn2N2C(c3ccccc3)C(CCC(F)(F)F)CCC12 (single isomer, unassigned) [Compound 128A, 7-hydroxy-5-methyl-1-phenyl-2-(3,3,3-trifluoropropyl)-1,2,3,4,4a,5-hexahydrodipyrido[1,2-b:2′,1′-f][1,2,4]triazine-6,8-dione]
EC50: 799 nM

CN1C(=O)c2c(O)c(=O)ccn2N2C(c3ccccc3)C(CC(F)(F)F)CCC12 (single isomer, unassigned) [Compound 118A, 7-hydroxy-5-methyl-1-phenyl-2-(2,2,2-trifluoroethyl)-1,2,3,4,4a,5-hexahydrodipyrido[1,2-b:2′,1′-f][1,2,4]triazine-6,8-dione]
EC50: > 8100 nM

CN1C(=O)c2c(O)c(=O)ccn2N2C(c3ccccc3)C(CCC3CC3)CCC12 (single isomer, unassigned) [Compound 115A, 2-(2-cyclopropylethyl)-7-hydroxy-5-methyl-1-phenyl-1,2,3,4,4a,5-hexahydrodipyrido[1,2-b:2′,1′-f][1,2,4]triazine-6,8-dione]
EC50: > 8100 nM

CN1C(=O)c2c(O)c(=O)ccn2N2C1CCC1(CCCC(F)(F)C1)C2c1ccccc1 (single isomer, unassigned) [Compound 75D, 3,3-difluoro-7′-hydroxy-5′-methyl-1′-phenyl-3′,4′,4a′,5′-tetrahydro-1′H-spiro[cyclohexane-1,2′-dipyrido[1,2-b:2′,1′-f][1,2,4]triazine]-6′,8′-dione]
EC50: 19.2 nM

CCOC1CCC2N(C)C(=O)c3c(O)c(=O)ccn3N2C1c1ccccc1 (stereo not drawn) [Compound 152B, 2-ethoxy-7-hydroxy-5-methyl-1-phenyl-1,2,3,4,4a,5-hexahydrodipyrido[1,2-b:2′,1′-f][1,2,4]triazine-6,8-dione]
EC50: 36.1 nM

CC1(c2nccs2)CCCC2N(CC(F)(F)F)C(=O)c3c(O)c(=O)ccn3N21 (single isomer, unassigned) [Compound 41B, 7-hydroxy-1-methyl-1-(thiazol-2-yl)-5-(2,2,2-trifluoroethyl)-1,2,3,4,4a,5-hexahydrodipyrido[1,2-b:2′,1′-f][1,2,4]triazine-6,8-dione]
EC50: 11.1 nM

Cc1ccccc1C1C(CC2CC2(F)F)CCC2N(C)C(=O)c3c(O)c(=O)ccn3N12 (single isomer, unassigned) [Compound 88C]
EC50: 4 nM

Cc1ccccc1C1C(CC(F)(F)F)CC(C)C2N(C)C(=O)c3c(O)c(=O)ccn3N12 (single isomer, unassigned) [Compound 79A, 7-hydroxy-4,5-dimethyl-1-(o-tolyl)-2-(2,2,2-trifluoroethyl)-1,2,3,4,4a,5-hexahydrodipyrido[1,2-b:2′,1′-f][1,2,4]triazine-6,8-dione]
EC50: 83.8 nM

CCN1C(=O)c2c(O)c(=O)ccn2N2C1CCCC2(C)c1cccc(C2CC2)n1 (single isomer, unassigned) [Compound 55A, 1-(6-cyclopropylpyridin-2-yl)-5-ethyl-7-hydroxy-1-methyl-1,2,3,4,4a,5-hexahydrodipyrido[1,2-b:2′,1′-f][1,2,4]triazine-6,8-dione]
EC50: > 810 nM

CCC1(c2ccccc2)CCC2N(C)C(=O)c3c(O)c(=O)ccn3N21 (single isomer, unassigned) [Compound 62B, 1-ethyl-6-hydroxy-4-methyl-1-phenyl-2,3,3a,4-tetrahydro-1H-pyrido[2,1-f]pyrrolo[1,2-b][1,2,4]triazine-5,7-dione]
EC50: > 8100 nM

CCN1C(=O)c2c(O)c(=O)ccn2N2C(c3ccccc3)C(CCC(F)F)CCC12 (single isomer, unassigned) [Compound 110B, 2-(3,3-difluoropropyl)-5-ethyl-7-hydroxy-1-phenyl-1,2,3,4,4a,5-hexahydrodipyrido[1,2-b:2′,1′-f][1,2,4]triazine-6,8-dione]
EC50: 5.5 nM
